Consider 1 compound from patent US6046228A, “Anti-viral pharmaceutical compositions containing saturated 1,2-dithiaheterocyclic compounds and uses thereof” (priority 1999, dated 2000).

Structures are written as SMILES.

Broadly, the EC50 is the concentration that produces a half-maximal response. Lower therefore signals a more potent agent.

The test system of assay [1] is HIV-1 ROJO(SI). Description: antiviral assay in PBL (p24), clinical isolate ROJO. In kind it is cell-based. The conditions noted are these: Human immunodeficiency virus 1, cell-free p24. The protocol: (§1) Initial anti-HIV screening was performed with CEM-SS cells and HIV-1RFusing the XTT cytoprotection assay as previously described (Weislow et al., J. National Cancer Inst. 81: 577-586, (1989)). HIV-1 isolates included common laboratory stains (RF, IIIB and MN), as well as a panel of HIV-1 clinical isolates (Cushman et al., J. Med. Chem. 37: 3040-3050, (1994)). The pyridone-resistant HIV-1A17 isolate (Nunberg et al., J. Virol., 65: 4887-4892 (1991)) was obtained from Emilio Emini at Merck Sharpe and Dohme Laboratories. Phytohemagglutinin-stimulated human peripheral blood lymphocytes (PBLs) and fresh monocyte-macrophage (Mono/MF) cultures were prepared and utilized in antiviral assays as previously described (Rice et al., Proc. Nat'l. Academy Science, USA 90: 9721-9724, (1993)); (Cushman et al., J. Med. Chem. 37: 3040-3050, (1994)). EC50 values for these cultures indicate the drug concentration that provided a 50% reduction in viral p24 production. […] The compounds can be synthesized according to the teachings of Singh et al., Sulfur Letters 8: 107-114, (1988). The 4,5-cis-dihydroxy(1,1-dioxy-1,2,-dithiohexane) compound (NSC 624151) has been abbreviated as 624151 for convenience. […]

Assay [2] deals with T1, HIV-1 protease (Human immunodeficiency virus type 1 group M subtype B, UniProt P04585).
T1 construct: the purified HIV-1 protease and integrase enzymes
Description: HIV-1 protease activity, reversed phase HPLC assay. Type of assay: biochemical.

The test system of assay [3] is HIV-1NL4-3 4XAZT. Description: XTT cytopathicity assay, NL4-3 site-directed RT mutant. The conditions noted are these: MT-2, NL4-3 4XAZT. In kind it is cell-based. As for the experimental part: (§2) Initial anti-HIV screening was performed with CEM-SS cells and HIV-1RFusing the XTT cytoprotection assay as previously described (Weislow et al., J. National Cancer Inst. 81: 577-586, (1989)). HIV-1 isolates included common laboratory stains (RF, IIIB and MN), as well as a panel of HIV-1 clinical isolates (Cushman et al., J. Med. Chem. 37: 3040-3050, (1994)). The pyridone-resistant HIV-1A17 isolate (Nunberg et al., J. Virol., 65: 4887-4892 (1991)) was obtained from Emilio Emini at Merck Sharpe and Dohme Laboratories. Phytohemagglutinin-stimulated human peripheral blood lymphocytes (PBLs) and fresh monocyte-macrophage (Mono/MF) cultures were prepared and utilized in antiviral assays as previously described (Rice et al., Proc. Nat'l. Academy Science, USA 90: 9721-9724, (1993)); (Cushman et al., J. Med. Chem. 37: 3040-3050, (1994)). EC50 values for these cultures indicate the drug concentration that provided a 50% reduction in viral p24 production. […] The compounds can be synthesized according to the teachings of Singh et al., Sulfur Letters 8: 107-114, (1988). The 4,5-cis-dihydroxy(1,1-dioxy-1,2,-dithiohexane) compound (NSC 624151) has been abbreviated as 624151 for convenience. MT-2, MT-4, U1, HeLa-CD4-LTR-β-gal and 174xCEM cells were obtained from the AIDS Research and Reference Program (National Institute of Allergy and Infectious Disease, National Institutes of Health, Bethesda, Md. USA), as were the HIV-2MS and the AZT-resistant HIV-1G910-6 isolates.
(§3) ^a Anti-HIV studies utilizing lymphocytederived cell lines were
(§4) performed using the XTT cytopathicity assay, while antiviral assays
A general note: Formazan colour is commonly taken as a measure of viable cells.

Assay [4] concerns HIV-1NL4-3 L74V. The assay is described as above. Type of assay: cell-based. The conditions noted are these: MT-2, NL4-3 L74V. The protocol:
as §2, §3, §4

Assay [5] concerns HIV-1NL4-3 Y181C. The description is as above. In kind it is cell-based. The conditions noted are these: MT-2, NL4-3 Y181C. The protocol: as §2, §3, §4
Assay [6] has as its system HIV-1NL4-3 K103N. Described as above. Type of assay: cell-based. As to conditions: MT-2, NL4-3 K103N. As for the experimental part: as §2, §3, §4
Assay [7] concerns HIV-1NL4-3 A986. Described as above. In kind it is cell-based. As to conditions: MT-2, NL4-3 A986. As for the experimental part:
as §2, §3, §4

Assay [8] has as its system HIV-1NL4-3 V1061. Described as above. The conditions noted are these: MT-2, NL4-3 V1061. Type of assay: cell-based. As for the experimental part: as §2, §3, §4
Assay [9] concerns HIV-1NL4-3 V179D. Described as above. The conditions noted are these: MT-2, NL4-3 V179D. In kind it is cell-based. The protocol: as §2, §3, §4
Assay [10] has as its system HIV-1NL4-3 V1081. Described as above. As to conditions: MT-2, NL4-3 V1081. In kind it is cell-based. As for the experimental part: as §2, §3, §4
The test system of assay [11] is HIV-1 WEJO(SI). Description: antiviral assay in PBL (p24), clinical isolate WEJO. In kind it is cell-based. The conditions noted are these: Human immunodeficiency virus 1, cell-free p24. The protocol: as §1

With `O=S1(=O)C[C@H](O)[C@H](O)CS1` (relative stereo) [NSC 624151, cis-1,1-dioxo[1,2]dithiane-4,5-diol], the EC50 was 25 µM in [1]; 10.7 µM in assay [3]; 19.8 µM in [4]; 20.9 µM in assay [5]; 17.3 µM in [6]; 26.5 µM in [7]. The EC50 in assay [8] stood at 20.8 µM; in [9], 20.2 µM; in assay [10], 20 µM; in [11] it was 7.59 µM. Also, the “inhibition of HIV-1 protease” value in [2] (in words) is “not inhibited”. For the same compound, the IC50 in assay [2] (read-out: Protease Activity ID50) is over 100 µM.
